Measurements published in ChEMBL document CHEMBL1201862, “PubChem BioAssay data set” (2004).
Calls of active or inactive are those of the source.

Tests used:
[1] = target: T1, Apoptotic protease-activating factor 1 (Homo sapiens, UniProt O14727); type: functional
T1 sequence (O14727 whole entry): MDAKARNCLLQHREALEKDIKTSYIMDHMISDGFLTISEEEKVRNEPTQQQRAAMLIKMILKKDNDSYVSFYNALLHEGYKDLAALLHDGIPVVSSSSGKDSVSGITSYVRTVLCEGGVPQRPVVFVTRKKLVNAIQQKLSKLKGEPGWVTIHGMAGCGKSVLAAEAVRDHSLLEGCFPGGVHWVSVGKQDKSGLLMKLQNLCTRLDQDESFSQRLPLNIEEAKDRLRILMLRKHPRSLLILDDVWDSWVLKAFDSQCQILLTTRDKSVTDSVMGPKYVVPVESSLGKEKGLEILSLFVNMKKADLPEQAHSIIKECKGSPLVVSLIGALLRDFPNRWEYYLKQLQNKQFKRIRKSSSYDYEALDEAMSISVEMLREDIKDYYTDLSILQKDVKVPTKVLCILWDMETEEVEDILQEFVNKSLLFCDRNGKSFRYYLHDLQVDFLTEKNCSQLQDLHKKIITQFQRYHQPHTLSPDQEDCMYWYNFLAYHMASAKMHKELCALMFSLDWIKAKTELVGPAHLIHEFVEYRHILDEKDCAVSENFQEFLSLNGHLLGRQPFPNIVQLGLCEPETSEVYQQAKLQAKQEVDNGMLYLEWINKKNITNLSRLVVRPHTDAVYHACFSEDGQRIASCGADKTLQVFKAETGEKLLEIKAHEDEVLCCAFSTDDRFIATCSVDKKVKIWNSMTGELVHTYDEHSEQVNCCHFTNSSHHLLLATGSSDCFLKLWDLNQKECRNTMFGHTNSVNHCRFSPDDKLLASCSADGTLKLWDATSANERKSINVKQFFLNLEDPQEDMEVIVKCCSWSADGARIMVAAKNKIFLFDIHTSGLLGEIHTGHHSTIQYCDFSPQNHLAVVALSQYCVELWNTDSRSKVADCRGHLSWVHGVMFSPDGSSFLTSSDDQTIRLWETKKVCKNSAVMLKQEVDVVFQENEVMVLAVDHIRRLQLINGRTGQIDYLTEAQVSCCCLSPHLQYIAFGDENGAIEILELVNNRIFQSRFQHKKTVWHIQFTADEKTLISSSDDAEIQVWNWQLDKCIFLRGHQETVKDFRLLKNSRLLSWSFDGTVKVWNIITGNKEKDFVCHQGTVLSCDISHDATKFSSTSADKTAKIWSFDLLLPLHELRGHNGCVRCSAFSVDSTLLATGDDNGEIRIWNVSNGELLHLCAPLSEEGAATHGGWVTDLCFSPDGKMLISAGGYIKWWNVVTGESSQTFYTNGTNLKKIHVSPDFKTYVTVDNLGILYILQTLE

[2] = target: T2, Histone-lysine N-methyltransferase NSD2 (Homo sapiens, UniProt O96028); type: biochemical
T2 sequence (O96028 whole entry): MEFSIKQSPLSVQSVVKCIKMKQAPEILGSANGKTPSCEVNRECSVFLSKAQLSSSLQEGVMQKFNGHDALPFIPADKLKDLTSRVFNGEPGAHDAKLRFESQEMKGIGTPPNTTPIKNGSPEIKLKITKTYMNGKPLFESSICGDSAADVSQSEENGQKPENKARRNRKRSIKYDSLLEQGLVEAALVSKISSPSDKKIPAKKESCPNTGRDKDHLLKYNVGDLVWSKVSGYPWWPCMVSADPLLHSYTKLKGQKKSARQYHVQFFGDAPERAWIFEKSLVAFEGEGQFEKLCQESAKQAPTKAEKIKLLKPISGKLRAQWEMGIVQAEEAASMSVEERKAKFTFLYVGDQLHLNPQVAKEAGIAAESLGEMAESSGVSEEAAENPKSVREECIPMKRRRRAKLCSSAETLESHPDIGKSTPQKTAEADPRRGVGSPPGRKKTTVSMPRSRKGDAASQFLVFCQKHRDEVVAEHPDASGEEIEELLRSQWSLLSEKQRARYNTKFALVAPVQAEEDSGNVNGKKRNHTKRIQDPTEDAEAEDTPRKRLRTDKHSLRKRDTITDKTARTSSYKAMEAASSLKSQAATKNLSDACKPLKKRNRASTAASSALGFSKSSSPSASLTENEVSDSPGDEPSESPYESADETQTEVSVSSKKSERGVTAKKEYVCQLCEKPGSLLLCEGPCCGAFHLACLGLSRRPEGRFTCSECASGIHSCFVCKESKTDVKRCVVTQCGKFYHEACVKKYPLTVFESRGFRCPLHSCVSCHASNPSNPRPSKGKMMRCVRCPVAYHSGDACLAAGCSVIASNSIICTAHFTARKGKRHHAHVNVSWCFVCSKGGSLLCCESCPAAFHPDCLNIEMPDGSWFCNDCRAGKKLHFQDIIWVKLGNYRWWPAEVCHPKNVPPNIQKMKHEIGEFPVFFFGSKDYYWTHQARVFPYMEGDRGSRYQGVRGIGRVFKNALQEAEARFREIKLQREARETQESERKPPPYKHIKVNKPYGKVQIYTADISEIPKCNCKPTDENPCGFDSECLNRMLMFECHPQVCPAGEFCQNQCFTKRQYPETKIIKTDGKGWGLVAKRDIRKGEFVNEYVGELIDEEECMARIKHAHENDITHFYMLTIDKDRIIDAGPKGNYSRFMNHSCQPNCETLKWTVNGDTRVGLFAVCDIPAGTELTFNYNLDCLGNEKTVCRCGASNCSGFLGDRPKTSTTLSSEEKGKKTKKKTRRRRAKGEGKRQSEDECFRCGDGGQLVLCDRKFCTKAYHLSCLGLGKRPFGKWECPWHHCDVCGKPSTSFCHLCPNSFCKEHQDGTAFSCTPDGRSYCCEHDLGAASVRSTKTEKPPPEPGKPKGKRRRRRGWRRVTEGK

[3] = target: T3, Cysteine protease ATG4B (Homo sapiens, UniProt Q9Y4P1); type: functional;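 note: Fluorescence-based dose-response confirmation assay measuring inhibition of ATG4B activity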
T3 sequence (Q9Y4P1 whole entry): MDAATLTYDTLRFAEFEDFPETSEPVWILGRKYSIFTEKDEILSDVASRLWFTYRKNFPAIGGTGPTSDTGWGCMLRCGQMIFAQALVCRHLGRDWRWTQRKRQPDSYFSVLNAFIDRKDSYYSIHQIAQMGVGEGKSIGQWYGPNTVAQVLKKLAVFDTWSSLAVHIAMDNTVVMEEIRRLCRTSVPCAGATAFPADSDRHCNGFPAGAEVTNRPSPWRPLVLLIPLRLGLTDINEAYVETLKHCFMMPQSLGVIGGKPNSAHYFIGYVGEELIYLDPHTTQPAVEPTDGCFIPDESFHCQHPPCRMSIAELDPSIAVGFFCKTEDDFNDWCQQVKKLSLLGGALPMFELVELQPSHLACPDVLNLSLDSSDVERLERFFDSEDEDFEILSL

[4] = target: Phospholipase A2 (Homo sapiens, UniProt P04054); type: functional;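 note: confirmatory dose-response counterscreen on phospholipase A2, testing hits that came from an ultra-high-throughput screen for ATG4B inhibitors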
Phospholipase A2, sequence (P04054 whole entry): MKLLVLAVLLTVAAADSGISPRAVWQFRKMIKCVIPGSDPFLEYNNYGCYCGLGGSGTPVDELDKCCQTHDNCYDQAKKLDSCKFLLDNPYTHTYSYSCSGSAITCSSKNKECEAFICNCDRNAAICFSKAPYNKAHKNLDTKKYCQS

Compound | IC50 [1] | AC50 [2] | IC50 [3] | IC50 [4]
O=C1c2ccccc2C(=O)c2[nH]c(O)nc21 | 6.79 µM (active) |  |  | 
CCOC(=O)C1=C(C)OC2(O)c3ccccc3C(=O)C12O (configuration not stated) | 2.55 µM (active) | 8.9 µM (active) |  | 
COC(=O)c1cc(C)nc2c1C(=O)C(=O)C=C2N1CCOCC1 | 1.01 µM (active) | 0.407 µM (active) | 4.45 µM (active) | 65.6 µM (inactive)
NS(=O)(=O)c1cc(C(=O)NC2CCSc3ccccc32)ccc1Cl (configuration not stated) |  |  | 6.64 µM (active) | 24.1 µM (inactive)
N#Cc1c(N2CCCC2)nc(N)c2c(N)nc(N3CCCC3)cc12 | 0.181 µM (active) |  | 1.64 µM (active) | 11.7 µM (active)
